Measurements: patent US10780076B2, “Inhibition of cancer cell motility” (Northwestern University, priority 2014, dated 2020)

Experiments:
[1] = target: T1, MKK4 (Homo sapiens, UniProt P45985); conditions: low nanomolar concentrations; cited from earlier work
T1 sequence (P45985 1-399): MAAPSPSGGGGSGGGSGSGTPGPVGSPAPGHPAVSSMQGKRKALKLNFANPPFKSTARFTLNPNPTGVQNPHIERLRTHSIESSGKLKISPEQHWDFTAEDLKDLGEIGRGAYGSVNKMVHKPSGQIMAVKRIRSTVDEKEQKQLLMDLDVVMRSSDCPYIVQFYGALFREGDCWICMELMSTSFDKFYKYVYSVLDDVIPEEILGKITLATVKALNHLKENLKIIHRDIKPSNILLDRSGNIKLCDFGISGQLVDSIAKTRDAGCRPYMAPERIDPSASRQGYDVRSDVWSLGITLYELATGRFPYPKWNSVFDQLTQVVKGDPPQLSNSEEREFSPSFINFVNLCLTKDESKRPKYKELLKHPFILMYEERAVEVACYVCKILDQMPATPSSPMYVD

[2] = system: protein phosphorylation (kinome) in PC3-M and PC3 cells; assay: KinomeView phospho-motif antibody screen; type: cell-based, human; conditions: 10 μM, 3 days, ±TGFβ
Method: FIG. 14A-D. Proteomic analysis of the effects of KBU2046 on the kinome. Screening for effects on the kinome. PC3-M cells were pre-treated with 10 μM KBU2046, genistein or vehicle control for 3 days, then with ±TGFB, as indicated. Resultant cell lysate, as well as lysate from tumors from mice treated with 150 mg/kg KBU2046 or control mice (from manuscript FIG. 3A), were then probed with the KinomeView® panel of antibodies by Western blot. In instances where KBU2046 was inhibiting protein phosphorylation in cells and in tumors, a repeat experiment of PC3-M cells was conducted. In addition to including PC3-M cells, experiments were expanded to examine effects on PC3 cells. […] (C,D) All other Western blots of phospho-motif antibodies that were evaluated on initial screen. NI=tumor not informative; this denotes a tumor sample that yielded an abnormal coomassie blue staining pattern.
Screening for changes in the kinome induced by KBU2046 were evaluated with the Kinoview™ assay system. […]
The KinomeView® panel of antibodies (Cell Signaling Technology, Inc.) detects established protein phosphorylation motifs, and were was to probe for KBU2046-induced changes in protein phosphorylation (FIG. 5A; FIGS. 14A-D). […] Genistein was evaluated under identical treatment conditions for comparison. […]

[3] = system: array of over 9,000 human proteins; assay: ProtoArray Human Protein Microarray hybridization; type: binding
Method: FIGS. 19A-D. KBU2046 binds to intact cells, but not to isolated proteins. (A) Chemical structure of KBU2046 linked to biotin (KBU2046-biotin). […] PC3-M cells were pre-treated with 10 μM KBU2046 or with KBU2046-biotin for three days, and single cell motility assays conducted. Data are the mean±SEM. […] PC3-M cells were labeled with […]+/−10 μM free KBU2046, followed by detection with FITC-streptavidin, and visualization by fluorescent microscopy (with equal exposure times). (D) Protein array hybridization. KBU2046-biotin was hybridized to ProtoArray® Human Protein Microarray's at 0.5 and 10 μM with and without 10-fold excess free KBU2046. Proteins were first sought that met the following criteria, and did so at both 0.5 and 10 μM concentrations of KBU2046-biotin (in the absence of free KBU2046): Z-Score greater than 2.5, Z-Factor greater than 0.5, CI P-value less than 0.05, negative control value <2,000 (relative fluorescence units; RFUs), and a signal/negative control signal of >10 and >5 for 10 μM and 0.5 μM conditions, respectively. This yielded 3 proteins, shown in table, for an initial hit rate of 0.03%. It was then required that free KBU2046 inhibit binding by >75% of the two remaining candidates, eliminating isovaleryl-CoA dehydrogenase (ICD). […] The positive control used in protein arrays was staurosporine. Staurosporine is similar to genistein in that both are small compound natural products that are broad spectrum kinase inhibitors. […] The vast majority of these proteins were kinases. Both HSP90β and CDC37 were present on the protein arrays, and were not bound by KBU2046-biotin.

[4] = system: PC3-M cells; assay: Cell labeling with FITC-streptavidin detection; type: cell-based, human; conditions: +/−10 μM free KBU2046
[5] = system: PC3-M cells; assay: Single cell motility assay with KBU2046-biotin; type: cell-based, human; conditions: 10 μM, three days
Method: PC3-M cells were pre-treated with 10 μM KBU2046 or with KBU2046-biotin for three days, and single cell motility assays conducted.
FIGS. 23A-C. […] PC3-M cells were pre-treated with 10 μM KBU2046 or with KBU2046-biotin for three days, and single cell motility assays conducted.

O=c1c(-c2ccc(O)cc2)coc2cc(O)cc(O)c12 [genistein, 4′,5,7-trihydroxyisoflavone]
inhibition of MKK4 kinase activity (literature) [1]: inhibited the kinase activity
changes in protein phosphorylation [2]: widespread changes in protein phosphorylation

O=C(CCCC[C@@H]1SC[C@@H]2NC(=O)N[C@@H]21)NCCOCCOCCOCCOc1ccc2c(c1)OCC(c1ccc(F)cc1)C2=O (stereo partly shown) [KBU2046-biotin]
binding to protein array ([3]; 0.5 and 10 μM): lack of binding
initial hit rate on protein array ([3]; 0.5 and 10 μM, before competition criterion): 0.03%
labeling of intact cells [4]: labels cells in a manner that can be competed off
biological activity in single cell motility [5]: biologically active

CN[C@@H]1C[C@H]2O[C@@](C)([C@@H]1OC)n1c3ccccc3c3c4c(c5c6ccccc6n2c5c31)C(=O)NC4 [staurosporine, reference compound]
number of proteins bound at >/=10 fold above background ([3]; positive control): 214 proteins
